Consider two molecules from article PMC11822212, “High-throughput screening identifies Aurora kinase B as a critical therapeutic target for Merkel cell carcinoma” (Nature Communications, 2025).

Assay [1] has as its system VN-MCC cell lines (MCC13, MCC26, UISO). In words: qHTS cell viability, VN-MCC cell lines as a group (mean AUC, VN.MCC.avg). Format: cell-based, human. The settings on record: NPC library; for VN-MCC_Avg_AUC: mean AUC of VN-MCC cell lines. (qHTS replaces the single test concentration by a dilution series.)
The test system of another assay is NIH-3T3 cells. In words: qHTS cell viability (CellTiter-Glo, 72 h; primary screen), control cell line. It counts as cell-based, mouse. The settings on record: NPC library.
In another assay the test system is MCC26 cells (VN-MCC). Briefly: qHTS cell viability (CellTiter-Glo, 72 h; primary and follow-up small molecule screen). It counts as cell-based, human. The note with it: NPC library.
The subject of another assay is MCC13 cells (VN-MCC). The description is as above. It counts as cell-based, human. The settings on record: NPC library.
The subject of a further assay is UISO cells (VN-MCC). The description is as above. The settings on record: NPC library. Format: cell-based, human.
A further assay concerns WAGA cells (VP-MCC). The assay is described as above. It counts as cell-based, human. The note with it: NPC library.
Assay [2] has as its system six MCC cell lines and four control cell lines. In words: qHTS cell viability, all 10 cell lines screened. Format: cell-based. The note with it: NPC library.
For assay [3], the system named is VP-MCC cell lines (WAGA, MKL-1, MKL-2). Briefly: qHTS cell viability, VP-MCC cell lines as a group (mean AUC, VP.MCC.avg). Format: cell-based, human. The settings on record: NPC library; for VP-MCC_Avg_AUC: mean AUC of VP-MCC cell lines.
The subject of a further assay is HACAT cells. Briefly: qHTS cell viability (CellTiter-Glo, 72 h; primary screen), control cell line. Format: cell-based, human. The settings on record: NPC library.
For the next assay, the system named is CRL-7250 cells. The description is as above. Format: cell-based. The note with it: NPC library.
For the next assay, the system named is MKL-2 cells (VP-MCC). In words: qHTS cell viability (CellTiter-Glo, 72 h; primary and follow-up small molecule screen). The note with it: NPC library. It counts as cell-based, human.
Another assay deals with MKL-1 cells (VP-MCC). Described as above. It counts as cell-based, human. The note with it: NPC library.
Assay [4] concerns MCC cell lines (WAGA, MKL-1, MKL-2, MCC13, MCC26, UISO). Briefly: qHTS cell viability, all six MCC cell lines as a group (mean AUC, MCC.avg). Format: cell-based, human. The note with it: NPC library; mean AUC of six MCC cell lines.
The test system of assay [5] is control cell lines (HACAT, HEK293T, CRL-7250, NIH-3T3). Briefly: qHTS cell viability, control cell lines as a group (mean AUC, Control.avg). It counts as cell-based. The note with it: NPC library; mean AUC of control cell lines.
The next assay relates to HEK293T cells. Briefly: qHTS cell viability (CellTiter-Glo, 72 h; primary screen), control cell line. Format: cell-based, human. The settings on record: NPC library.
Setting [6] is: 8-point DRC, area under dose-response curve.

In turn, `CCCCC1C(=O)N(c2ccccc2)N(c2ccc(O)cc2)C1=O` (stereo not shown) [Oxyphenbutazone] registered a VN-MCC_Avg_AUC in assay [1] of 419.723. For the same molecule, the Control-VN-MCC in assay [1] (therapeutic window: Control avg AUC minus VN-MCC avg AUC) is -1.619. In the assay with NIH-3T3 cells (qHTS dose-response AUC, NIH3T3 control), this molecule registered an NIH3T3_AUC of 433.353. The molecule also displayed an MCC26_AUC with MCC26 cells (VN-MCC) (qHTS dose-response AUC, MCC26) of 450.163. Moreover, the MCC13_AUC in the assay with MCC13 cells (VN-MCC) (qHTS dose-response AUC, MCC13) is listed as 405.464. In addition, in the assay on UISO cells (VN-MCC) (qHTS dose-response AUC, UISO), the UISO_AUC was 403.541. In addition, in the assay with WAGA cells (VP-MCC) (qHTS dose-response AUC, WAGA), the WAGA_AUC was 370.924. Besides, the Control-MCC in [2] (therapeutic window: Control avg AUC minus MCC avg AUC) was 36.6743. The VP-MCC_Avg_AUC in [3] stood at 343.137. In assay [3] (therapeutic window: Control avg AUC minus VP-MCC avg AUC), this molecule had a Control-VP-MCC of 74.9673. In the assay on HACAT cells (qHTS dose-response AUC, HACAT control), this molecule displayed an HACAT_AUC of 428.222. In the assay on CRL-7250 cells (qHTS dose-response AUC, CRL7250 control), the CRL7250_AUC is reported as 449.026. In addition, the MKL2_AUC in the assay with MKL-2 cells (VP-MCC) (qHTS dose-response AUC, MKL2) turned out to be 317.862. For the same molecule, the MKL1_AUC in the assay on MKL-1 cells (VP-MCC) (qHTS dose-response AUC, MKL1) is 340.624. In assay [4], this molecule came in with an MCC_Avg_AUC of 381.43. Besides, in assay [5], the Control_Avg_AUC is listed as 418.104. Moreover, the HEK293T_AUC in the assay with HEK293T cells (qHTS dose-response AUC, HEK293T control) is on record as 361.816.
In [1] (Control AUC minus VN-MCC AUC (therapeutic window)), `O=S1(=O)OC(c2ccc(O)cc2)(c2ccc(O)cc2)c2ccccc21` [Phenol red] yielded a Control-VN-MCC of 61.2549. Further, the VN-MCC_Avg_AUC in assay [1] was determined as 416.577. This molecule returned an NIH3T3_AUC in the assay with NIH-3T3 cells (8-point DRC, control cell line) of 484.742. The molecule further registered an MCC26_AUC in the assay with MCC26 cells (VN-MCC) (setting [6]) of 404.069. The molecule further showed an MCC13_AUC with MCC13 cells (VN-MCC) (setting [6]) of 422.151. The molecule further displayed a UISO_AUC with UISO cells (VN-MCC) (setting [6]) of 423.512. Moreover, the WAGA_AUC with WAGA cells (VP-MCC) (setting [6]) stood at 458.996. This molecule also returned a Control-MCC in assay [2] (Control AUC minus MCC AUC (therapeutic window)) of 46.071. Also, the Control-VP-MCC in assay [3] (Control AUC minus VP-MCC AUC (therapeutic window)) is given as 30.8871. For the same molecule, in assay [3], the VP-MCC_Avg_AUC stood at 446.945. In the assay on HACAT cells (8-point DRC, control cell line), this molecule yielded an HACAT_AUC of 492.366. In the assay with CRL-7250 cells (8-point DRC, control cell line), this molecule registered a CRL7250_AUC of 462.075. In the assay on MKL-2 cells (VP-MCC) (setting [6]), this molecule had an MKL2_AUC of 451.959. The MKL1_AUC with MKL-1 cells (VP-MCC) (setting [6]) came out at 429.88. In [4], this molecule yielded an MCC_Avg_AUC of 431.761. In assay [5], the Control_Avg_AUC was found to be 477.832. In the assay on HEK293T cells (8-point DRC, control cell line), this molecule had an HEK293T_AUC of 472.146.
